Measured values taken from patent US20070244449A1, “System and method for the prevention of bacterial and fungal infections including Urinary Tract Infections (UTI) using N-halogenated amino acids” (Novacal Pharmaceuticals, Inc., priority 2005, published 2007).

Assays:
[1] = test system: urease positive Escherichia coli ATCC 25922; assay: Biofilm eradication in model urinary catheter flow system; assay type: cell-based; conditions: for Average Log CFU/cm^2 on catheter section after treatment, average 3 pieces / Average Log CFU/cm^2 on catheter section after treatment, end / Average Log CFU/cm^2 on catheter section after treatment, front / Average Log CFU/cm^2 on catheter section after treatment, middle / Log reduction: pH 4, 0.9% NaCl; for Average Log CFU/cm^2 on catheter section after treatment, average 3 pieces / Average Log CFU/cm^2 on catheter section after treatment, end / Average Log CFU/cm^2 on catheter section after treatment, front / Average Log CFU/cm^2 on catheter section after treatment, middle: 3-day biofilm, 10 min flow + 30 min stationary; for Log reduction: versus PBS or saline
Procedure: A test system was established which utilized size 14 Foley catheters (supplied by NovaCal), which were cut and installed into a pre-sterilized flow system (FIG. 4) using aseptic techniques. The system consists of five parallel channels, one channel per catheter. Sterile medium was supplied to the system via a flow-break, to prevent back-growth into the medium reservoir. The entire system was placed in a 37° C. incubator. After conditioning the system with artificial urine medium for 30 minutes, 2.0 ml inoculum from an overnight culture of urease positive Escherichia coli ATCC 25922 grown in artificial urine medium at 37° C. was introduced into the system via the valve closest to the flow break (bladder side of catheter). Each inoculum was tested to confirm urease production. After inoculation, the system remained under static conditions (no flow) for two hours, to allow for bacterial attachment to the catheters. Flow of artificial urine medium was then initiated and maintained at a rate of 0.75 ml/min for 3 days.
Test Articles Used Were: • Sterile saline • N,N-dichloro 2,2-dimethyl taurine, 4 mM, pH 4, 0.9% by weight NaCl • N,N-dichloro 2,2-dimethyl taurine, 40 mM, pH 4, 0.9% by weight NaCl
20 ml of each treatment solution N,N-dichloro 2,2-dimethyl taurine and sterile control solution were loaded into 30 ml syringes and connected to a syringe pump. Sterile sections of tubing were attached from the syringe to the valve furthest from the flow break (bag end of the catheter). This end is designated as FRONT for sampling purposes. The pump was turned on and the treatments were introduced at 2.0 ml/min for 10 minutes through the catheters. Excess medium and treatment solution was captured in a waste container. After 10 minutes, the syringe pump was turned off and the solutions were left stationary in the catheters for 30 minutes. The solutions were then withdrawn back through the catheter into the syringe, medium flow was resumed for a 30 minute rinse time and the catheters were then sampled.
Each catheter was divided into 3 segments (front, middle, end) and each segment was subsampled. One subsample was used to determine bacterial populations by plate count, another subsample was analyzed by staining with the LIVE/DEAD® Baclight™ bacterial viability kit (L7012, Molecular Probes, Oregon, USA) using confocal laser microscopy (CSLM), the third sample was imaged using scanning electron microscopy (SEM).
For viable cell counts, a 3.0 centimeter section of tubing was removed and scraped with a sterile stainless steel rod (using aseptic technique) into a tube containing 10.0 ml of sterile phosphate-buffered saline (PBS). The tubes were then sonicated for two minutes and the suspension was vortexed for one minute. The number of viable (culturable) bacteria was enumerated by serial dilution in PBS and plate counts using the spread-plate technique. Results were expressed as CFU/cm^2 and are calculated as follows: [formula]
The surface area of the internal lumen of the catheter section scraped was determined to be 2.826 cm^2.
Three treatment runs were performed on 3 catheters each: One treated with PBS or sterile 0.9% saline as control, one treated with 4 mM and one treated with 40 mM N,N-dichloro 2,2-dimethyl taurine. The Log (CFU/cm^2) was calculated from the average of 9 treatments, consisting of 3 treatments of 3 catheter pieces for each Test Article.

[2] = test system: bacteria on Foley catheter removed from a patient; assay: Ex-vivo treatment of a patient catheter, viable plate counts; assay type: cell-based; conditions: 40 mM
Procedure: Test Articles Used Were: • Sterile phosphate-buffered saline (PBS) • N,N-dichloro 2,2-dimethyl taurine, 40 mM, pH 4, 0.9% by weight NaCl
A Foley catheter was removed from a patient by hospital personnel and placed in a sterile bag. In the Bozeman Deaconess Hospital (BDH) lab, the outside of the catheter was wiped down with 70% ethanol. Then the catheter was aseptically cut into 3 catheter portions (bag-end, middle and patient-end). Each portion was cut into 3.0 cm long sections using a ruler and razor blades.
Three of the sections (one bag-end, one middle and one patient-end) designated as control were placed into sterile PBS. Three of the sections (one bag-end, one middle and one patient-end) were placed in 40 mM N,N-dichloro 2,2-dimethyl taurine. All catheter sections were treated for 30 minutes individually in sterile glass tubes, each with sufficient solution to be immersed completely. After treatment, each 3 cm section was removed from the treatment tubes and the PBS control tubes and placed into a second glass tube containing sterile PBS for a 2 minute rinse in order to remove the treatment solution. The section was then removed from the tube and aseptically cut into 1.0 cm and 2.0 cm pieces. The 2.0 cm piece was placed in a tube containing 10 ml of sterile PBS, vortexed, sonicated and diluted for viable plate counts. The number of viable (culturable) bacteria was enumerated by serial dilution in PBS and plate counts using the spread-plate technique. Samples were plated on blood agar plates. Results will be expressed as colony-forming units/cm^2, CFU/cm^2 (calculated as 2.0 cm length×0.25 cm (radius)×3.14 (pi)=1.57 cm^2). The 1.0 cm piece was placed in 4% formaldehyde solution.

[3] = test system: Escherichia coli ATCC 25922; assay: Destruction of 48 h biofilm on 1-cm Foley catheter pieces, plate count; assay type: cell-based; conditions: 33 mM, 0.9% saline, pH 3.5
Procedure: (§1) We have devised a dynamic in vitro model using traditional microbiological methods to assess the antimicrobial efficacy of 33 mM N, N-dichloro 2,2-dimethly taurine in 0.9% saline at pH 3.5, as compared to physiological saline in disinfecting intra-luminal and extra-luminal indwelling Foley catheter.
(§2) Foley Catheter, manufactured by BARD • N,N-dichloro 2,2-dimethyl taurine (33 mM) in 0.9% saline pH 3.5 • Escherichia coli ATCC 25922 • Proteus mirabilis ATCC 29245
(§3) Neutralizer Broth containing: A broth containing dextrose, lecithin, sodium thiosulfate, pancreatic digest of casein, Tween® 80, yeast extract, sodium bisulfate, sodium thioglycollate, monopotassium phosphate, and bromcresol purple.
(§4) The ability of N,N-dichloro 2,2-dimethyl taurine to destroy biofilm formation was evaluated as follows. First, biofilm was established on 1-cm-long pieces of catheter for 48 hours in nutrient broth in the presence of either Proteus mirabilis or Escherichia coli. Subsequently, the biofilm-bearing pieces of catheter were exposed to 33 mM N,N-dichloro 2,2-dimethyl taurine in 0.9% saline at pH 3.5 over various periods of time. After the exposure, the pieces of catheter were transferred into 1 mL of neutralizer broth to stop the reaction. 0.1 mL (10%) of the neutralizer broth was then plated out onto nutrient agar and the number of colonies was counted. The CFU (Colony Forming Unit) values obtained were multiplied by 10 to obtain the actual CFU/mL values per treated sample.

[4] = test system: Proteus mirabilis ATCC 29245; assay: as above; assay type: cell-based; conditions: 33 mM, 0.9% saline, pH 3.5
Procedure: as §1, §2, §3, §4

[5] = test system: urease positive Escherichia coli ATCC 25922; assay: Biofilm prevention in model urinary catheter flow system; assay type: cell-based
Procedure: Test Articles Used Were: • Sterile saline • White vinegar at 1:3 dilution with distilled water (filter sterilized). • Neomycin Prescription: 1 ml into 1000 ml of sterile saline • N,N-dichloro 2,2-dimethyl taurine, 40 mM, pH 4, 0.9% by weight NaCl
Day 0: The test system, as described in detail above, utilized size 14 Foley catheters, cut and installed into a pre-sterilized flow system using aseptic techniques. Sterile medium was supplied to the system via a flow-break, to prevent back-growth into the medium reservoir. The entire system was placed into a 37° C. incubator. After conditioning the system with artificial urine medium for 30 minutes, each catheter was treated with a disinfectant. 20.0 ml of each treatment solution was loaded into 30 ml syringes and connected to a syringe pump. Sterile sections of tubing were attached from the syringe to the valve furthest from the flow break (bag end of the catheter). This end is designated as FRONT for sampling purposes. The pump was turned on and the treatments were introduced at 2.0 ml/min for 10 minutes through the catheters. Excess medium and treatment solution was captured in a waste container. After 10 minutes, the syringe pump was turned off and the solutions were left stationary in the catheters for 30 minutes. The solutions were then withdrawn back through the catheter into the syringe. The catheters were then rinsed with sterile medium for 30 minutes.
On Day 0 only: An inoculum from an overnight culture of urease positive Escherichia coli ATCC 25922 grown in artificial urine medium at 37° C. was introduced into the system via the valve closest to the flow break (bladder side of catheter). Each inoculum was tested for confirmation of urease production. After inoculation, the system remained under static conditions (no flow) for two hours, to allow for bacterial attachment to the catheters. Flow of artificial urine medium was then initiated and maintained at a rate of 0.75 ml/min.
Days 1, 3 and 5: For viable cell counts, a 3.0 centimeter section of tubing was removed and scraped with a sterile stainless steel rod (using aseptic technique) into a tube containing 10.0 ml of sterile PBS. The tubes were then sonicated for two minutes and the suspension was vortexed for one minute. The number of viable (culturable) bacteria was enumerated by serial dilution in PBS and plate counts using the spread-plate technique. Results are expressed as CFU/cm^2 and were calculated as described in Phase One.
Days 1 and 3: After sampling, the catheters were disinfected and rinsed with sterile medium as described above.
Days 2 and 4: the catheters were disinfected and rinsed with sterile medium as described above. No samples were taken.
Day 5: Samples were taken for imaging and both ends of the catheter were sampled for viable cell count data.

[6] = test system: E. coli and Pr. mirabilis; assay: Treated biofilm-bearing catheter pieces: re-culture (OD600) and visual examination; assay type: cell-based, Escherichia coli; Proteus mirabilis
Procedure: In order to measure the amount of live bacteria left on the pieces of catheter following treatment, the biofilm-bearing pieces of catheter were transferred into tubes containing fresh growth medium. After allowing growth in a shaker at 37° C. for 4 hours, Optical Density (OD) was read at 600 nm.
This was also shown by very low optical denisty readings (average of 0.057 OD600 units, individual data not listed) following the attempt to re-culture the bacteria from treated catheters.

[7] = pH 4, 0.9% NaCl, 30 min immersion
[8] = daily treatment, DCDMT 40 mM pH 4 0.9% NaCl, vinegar 1:3 in water, neomycin prescription 1 ml in 1000 ml saline

With `CC(C)(CS(=O)(=O)O)N(Cl)Cl` [N,N-dichloro 2,2-dimethyl taurine] the “bacterial counts and presence of biofilm (visual interpretation from images)” value ([1]; 4 mM and 40 mM) was “significantly reduced”, the “Average Log CFU/cm^2 on catheter section after treatment, average 3 pieces” value ([1]; 4 mM) was 4.4 Log CFU/cm^2 and the “Average Log CFU/cm^2 on catheter section after treatment, end” value ([1]; 4 mM) was 5.1 Log CFU/cm^2. For the same compound, the “Average Log CFU/cm^2 on catheter section after treatment, front” value ([1]; 4 mM) was 4.1 Log CFU/cm^2, the “Average Log CFU/cm^2 on catheter section after treatment, middle” value ([1]; 4 mM) was 3.9 Log CFU/cm^2 and the Log reduction ([1]; 4 mM) was 4.7 Log. For the same compound, the “Average Log CFU/cm^2 on catheter section after treatment, average 3 pieces” value ([1]; 40 mM) was 3.8 Log CFU/cm^2, the “Average Log CFU/cm^2 on catheter section after treatment, end” value ([1]; 40 mM) was 3.8 Log CFU/cm^2 and the “Average Log CFU/cm^2 on catheter section after treatment, front” value ([1]; 40 mM) was 3.7 Log CFU/cm^2. The “Average Log CFU/cm^2 on catheter section after treatment, middle” value ([1]; 40 mM) was 3.8 Log CFU/cm^2, the Log reduction ([1]; 40 mM) was 5.3 Log and the “Average Log CFU/cm^2 on catheter section after treatment, average 3 pieces” value [2, 7] was 1.2 Log CFU/cm^2. For the same compound, the “Average Log CFU/cm^2 on catheter section after treatment, bag end” value [2, 7] was 2.1 Log CFU/cm^2, the “Average Log CFU/cm^2 on catheter section after treatment, middle” value [2, 7] was 0.5 Log CFU/cm^2 and the “Average Log CFU/cm^2 on catheter section after treatment, patient end” value [2, 7] was 0.8 Log CFU/cm^2. For the same compound, the Log reduction ([2]; compared to catheter pieces treated with sterile PBS) was 1.8 Log, the CFU/mL ([3]; exposure 5 min) was 0 CFU/mL and the CFU/mL ([3]; exposure 10 min) was 0 CFU/mL. The CFU/mL ([3]; exposure 20 min) was 0 CFU/mL, the CFU/mL ([3]; exposure 30 min) was 0 CFU/mL and the CFU/mL ([3]; exposure 45 min) was 0 CFU/mL. For the same compound, the CFU/mL ([3]; exposure 60 min) was 0 CFU/mL, the CFU/mL ([3]; exposure 120 min) was 0 CFU/mL and the CFU/mL ([3]; exposure <1 min) was 0 CFU/mL. The CFU/mL ([4]; exposure 5 min) was 1210 CFU/mL, the CFU/mL ([4]; exposure 10 min) was 150 CFU/mL and the CFU/mL ([4]; exposure 20 min) was 150 CFU/mL. The CFU/mL ([4]; exposure 30 min) was 100 CFU/mL, the CFU/mL ([4]; exposure 45 min) was 20 CFU/mL and the CFU/mL ([4]; exposure 60 min) was 10 CFU/mL. For the same compound, the CFU/mL ([4]; exposure 120 min) was 260 CFU/mL, the CFU/mL ([4]; exposure <1 min) was >>3000 CFU/mL and the “biofilm formation during the 5 day duration of the experiment” value ([5]; 40 mM, pH 4, 0.9% NaCl) was “appeared to inhibit biofilm formation”. For the same compound, the “Biofilm prevention, viable cell count, Day 1” value [5, 8] was 2.6 log CFU/cm^2, the “Biofilm prevention, viable cell count, Day 3” value [5, 8] was 3.2 log CFU/cm^2 and the “Biofilm prevention, viable cell count, Day 5 "End" (bladder end)” value [5, 8] was 3.1 log CFU/cm^2. For the same compound, the “Biofilm prevention, viable cell count, Day 5 "Front" (bag end)” value [5, 8] was 3.9 log CFU/cm^2, the “Visual examination of biofilm on the catheter surface” value ([6]; 33 mM in 0.9% saline at pH 3.5) was “subsequent removal” and the “optical density readings following re-culture of bacteria from treated catheters (average)” value ([6]; 33 mM, 0.9% saline, pH 3.5, 4 h growth at 37 C in fresh medium, average, individual data not listed) was 0.057 OD600 units.
